Tests used:
CD11b = assay: Human whole blood CD11b up-regulation assay; assay type: cell-based; conditions: Homo sapiens, 2 nM human C5a, CD15+ granulocytes, read-out: hCD11b IC50
Outline: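 Heparinized human whole blood (used within 2 h) preincubated 10 min at room temperature with compound in 1% DMSO, then stimulated with 2 nM human C5a for 15 min. After anti-CD15/anti-CD11b staining on ice and RBC lysis, CD11b median fluorescence on 10,000 CD15+ granulocytes measured by flow cytometry.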

physchem = conditions: thermodynamic from solid, 24 hr Equilibrium Solubility
human C5aR = human C5aR (Homo sapiens (Human), UniProt P21730); assay: FLIPR assay: inhibition of C5a-mediated calcium mobilization; assay type: cell-based; conditions: stable cell line over expressing human C5aR & Gα15, human C5a at EC50 (0.1-0.25 nM)
Outline: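 Stable cell line overexpressing human C5aR with Gα15, measured on FLIPR Tetra. Cells loaded 1 h at 37° C with calcium 5 dye and 2.5 mM probenecid in HBSS/20 mM HEPES/0.1% BSA. Compounds preincubated 30 minutes at room temperature in 1% DMSO before C5a.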

human C5aR, sequence (P21730 whole entry): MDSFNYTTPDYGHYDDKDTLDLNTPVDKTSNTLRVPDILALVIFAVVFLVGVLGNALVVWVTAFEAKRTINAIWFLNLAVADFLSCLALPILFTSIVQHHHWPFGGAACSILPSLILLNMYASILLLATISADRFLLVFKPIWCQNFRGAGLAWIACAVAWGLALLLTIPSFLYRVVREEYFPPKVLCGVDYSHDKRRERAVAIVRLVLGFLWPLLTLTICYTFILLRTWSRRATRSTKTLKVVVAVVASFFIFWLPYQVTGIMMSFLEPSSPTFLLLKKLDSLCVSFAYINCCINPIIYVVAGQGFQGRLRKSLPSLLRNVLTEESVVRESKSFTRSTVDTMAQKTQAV

| SMILES | IC50 (CD11b) [nM] | IC50 (human C5aR) [nM] | further results |
| --- | --- | --- | --- |
| CO[C@H]1C[C@H]2CC[C@@H](C1)N2c1nc(-c2c(C)ccc3[nH]nc(C)c23)nc2c1CN(c1cc(C(C)C)ccc1C)CC2 [Example 19-F, 2-(3,5-Dimethyl-1H-indazol-4-yl)-6-(5-isopropyl-2-methylphenyl)-4-((3-endo)-3-methoxy-8-azabicyclo[3.2.1]octan-8-yl)-5,6,7,8-tetrahydropyrido[4,3-d]pyrimidine] | 13 | 4 | solubility thermodynamic at 24 h (physchem; oil or lipid): > 26500 µg/mL; solubility thermodynamic at 24 h (physchem; pH 1, simulated gastric fluid): < 0.5 µg/mL; solubility thermodynamic at 24 h (physchem; pH 4.5, aqueous buffer): < 0.5 µg/mL; solubility thermodynamic at 24 h (physchem; pH 5.5, fessif): < 0.5 µg/mL; solubility thermodynamic at 24 h (physchem; pH 6.5, fassif): < 0.5 µg/mL; solubility thermodynamic at 24 h (physchem; pH 6.8, aqueous buffer): < 0.5 µg/mL; solubility thermodynamic at 24 h (physchem; simulated gastric fluid): < 0.5 µg/mL; solubility thermodynamic at 24 h (physchem; water): < 0.5 µg/mL |
| CO[C@@H]1CCN(c2nc(-c3c(C)ccc4[nH]nc(C)c34)nc3c2CN(c2cc(C(F)(F)F)nn2C)CC3)[C@H](C)C1 [Example 23-J, 2-(3,5-dimethyl-1H-indazol-4-yl)-4-((2R,4R)-4-methoxy-2-methylpiperidin-1-yl)-6-(1-methyl-3-(trifluoromethyl)-1H-pyrazol-5-yl)-5,6,7,8-tetrahydropyrido[4,3-d]pyrimidine] | 38 | 8 | – |
| CO[C@@H]1CCN(c2nc(-c3c(C)cccc3C)nc3c2CN(c2cc(C(C)C)ccc2C)CC3)[C@H](C)C1 [Example 21-D, 2-(2,6-Dimethylphenyl)-6-(5-isopropyl-2-methylphenyl)-4-((2R,4R)-4-methoxy-2-methylpiperidin-1-yl)-5,6,7,8-tetrahydropyrido[4,3-d]pyrimidine] | 7 | 0.5 | – |
| CO[C@@H]1CCN(c2nc(-c3c(C)ccc4[nH]nc(C)c34)nc3c2CN(c2c(Cl)c(C4CC4)nn2C)CC3)[C@H](C)C1 [Example 55-M, 6-(4-chloro-3-cyclopropyl-1-methyl-1H-pyrazol-5-yl)-2-(3,5-dimethyl-1H-indazol-4-yl)-4-((2R,4R)-4-methoxy-2-methylpiperidin-1-yl)-5,6,7,8-tetrahydropyrido[4,3-d]pyrimidine] | 15 | 1 | – |
| CO[C@@H]1CCN(c2nc(-c3c(C)ccc4[nH]nc(C)c34)nc3c2CN(c2cc(C(C)C)ccc2C)CC3)[C@H](C)C1 [Example 21-Q, (+)-2-(3,5-dimethyl-1H-indazol-4-yl)-6-(5-isopropyl-2-methylphenyl)-4-((2R,4R)-4-methoxy-2-methylpiperidijn-1-yl)-5,6,7,8-tetrahydropyrido[4,3-d]pyrimidine] | 7 | 1 | – |
| [2H]C1([2H])c2c(C)cc(-c3c(CC)cccc3CC)nc2CCN1c1c(Cl)c(C2CC2)nn1C [Example 42-I, 6-(4-chloro-3-cyclopropyl-1-methyl-1H-pyrazol-5-yl)-2-(2,6-diethylphenyl)-4-methyl-5,6,7,8-tetrahydro(5,5-^2H2)-1,6-naphthyridine] | 2120 | 14 | – |
| CO[C@H]1CCN(c2nc(-c3cccc4[nH]cc(C)c34)nc3c2CN(c2cc(C(C)C)ccc2C)CC3)[C@H](C)C1 [Example 17-P, 6-(5-isopropyl-2-methylphenyl)-4-((2R,4S)-4-methoxy-2-methylpiperidin-1-yl)-2-(3-methyl-1H-indol-4-yl)-5,6,7,8-tetrahydropyrido[4,3-d]pyrimidine] | 70 | 13 | – |
| COc1nc(-c2c(C)ccc3[nH]nc(Cl)c23)nc2c1CN(c1cc(C(C)C)ccc1C)CC2 [Example 32-A, 2-(3-Chloro-5-methyl-1H-indazol-4-yl)-6-(5-isopropyl-2-methylphenyl)-4-methoxy-5,6,7,8 tetrahydropyrido[4,3-d]pyrimidine] | 63 | 6 | – |
| Cc1ccc2[nH]nc(C)c2c1-c1nc2c(c(N3CCOC[C@H]3C)n1)CN(c1c(Cl)c(C3CC3)nn1C)CC2 [Example 70-J] | 39 | 12 | – |
| CO[C@@H]1CCN(c2nc(-c3c(C)ccc4[nH]nc(C)c34)nc3c2CN(c2cc(C4CC4)nn2C)CC3)[C@H](C)C1 [Example 23-H, 6-(3-cyclopropyl-1-methyl-1H-pyrazol-5-yl)-2-(3,5-dimethyl-1H-indazol-4-yl)-4-((2R,4R)-4-methoxy-2-methylpiperidin-1-yl)-5,6,7,8-tetrahydropyrido[4,3-d]pyrimidine] | 24 | 1 | – |
| CO[C@@H]1CCN(c2nc(-c3cc(C)ccc3C)nc3c2CN(c2cc(C(C)C)ccc2C)CC3)[C@H](C)C1 [Example 21-E, 2-(2,5-dimeethylphenyl)-6-(5-isopropyl-2-methylphenyl)-4-((2R,4R)-4-methoxy-2-methylpiperidin-1-yl)-5,6,7,8-tetrahydropyrido[4,3-d]pyrimidine] | 422 | 23 | – |
| Cc1ccc(C(C)C)cc1N1CCc2nc(-c3c(C)ccc4[nH]nc(C)c34)nc(N3CCC3C)c2C1 (single isomer, unassigned) [Example 65-I, 2-(3,5-dimethyl-1H-indazol-4-yl)-6-(5-isopropyl-2-methylphenyl)-4-(2-methylazetidin-1-yl)-5,6,7,8-tetrahydropyrido[4,3-d]pyrimidine] | 19 | 1 | – |
| CO[C@H]1CCN(c2nc(-c3ccc(F)c4[nH]cc(C)c34)nc3c2CN(c2cc(C(C)C)ccc2C)CC3)CC1(C)C [Example 21-AF, (S)-2-(7-fluoro-3-methyl-1H-indol-4-yl)-6-(5-isopropyl-2-methylphenyl)-4-(4-methoxy-3,3-dimethylpiperidin-1-yl)-5,6,7,8-tetrahydropyrido[4,3-d]pyrimidine] | 28 | 4 | – |

Reference: patent US8846656B2, “Tetrahydropyrido-pyridine and tetrahydropyrido-pyrimidine compounds and use thereof as C5a receptor modulators” (Novartis AG, priority 2011, dated 2014)
